In patent publication US20190053492A1, “SUBSTITUTED PYRIDINE COMPOUNDS AS PESTICIDES” (Bayer CropScience Aktiengesellschaft, priority 2016, published 2019):

Tests used:
Spodoptera frugiperda = Spodoptera frugiperda spray test; format: in vivo; settings: after 7 days, maize leaf discs
How it was run: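 Maize leaf discs were sprayed with compound formulated in acetone/DMF and emulsifier-containing water, dried, then infested with Spodoptera frugiperda caterpillars. Percent kill was scored after 7 days, from 100% (all dead) to 0% (none dead).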

Phaedon cochleariae = Phaedon cochleariae spray test; format: in vivo; settings: after 7 days, Chinese cabbage leaf discs
How it was run: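 Chinese cabbage leaf discs sprayed with compound in acetone/DMF and emulsifier-containing water, then infested with mustard beetle larvae once dry. Efficacy in % scored after 7 days (100% = all larvae killed, 0% = none).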

[1] = log P by HPLC on reversed-phase column (C 18), EEC Directive 79/831 Annex V.A8; format: physicochemical; settings: 55° C.; for LOGP_HCOOH: log P (HCOOH)
Method: Temperature: 55° C. […] Called log P (HCOOH) in the table. […] Called log P (neutral) in the table.

Meloidogyne incognita = Meloidogyne incognita test; format: in vivo; settings: application rate 20 ppm, after 14 days, lettuce
Method: Meloidogyne incognita Test Solvent: 125.0 parts by weight of acetone To produce a suitable active ingredient formulation, 1 part by weight of active ingredient is mixed with the stated amount of solvent and the concentrate is diluted with water to the desired concentration. Vessels are filled with sand, active ingredient solution, an egg/larvae suspension of the southern root-knot nematode (Meloidogyne incognita) and lettuce seeds. The lettuce seeds germinate and the plants develop. The galls develop on the roots. After 14 days, the nematicidal efficacy in % is determined by the formation of galls. 100% means that no galls were found; 0% means that the number of galls on the treated plants corresponds to the untreated control.

Ctenocephalides felis [2] = test: Ctenocephalides felis oral test; format: in vivo; settings: application rate 100 ppm in citrated cattle blood, after 2 days, adult cat fleas
How it was run: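 About 20 unfed adult cat fleas fed through a parafilm membrane on citrated cattle blood dosed with compound from a DMSO formulation. Percent kill was scored after 2 days.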

Boophilus microplus = Boophilus microplus injection test; format: in vivo; settings: application rate 20 μg/animal, assessed after 7 days, engorged adult female cattle ticks
Method: Boophilus microplus—Injection Test
Solvent: dimethyl sulphoxide
To produce a suitable active ingredient formulation, 10 mg of active ingredient are mixed with 0.5 ml of solvent and the concentrate is diluted to the desired concentration with solvent.
1 μl of the active ingredient solution is injected into the abdomen of 5 engorged adult female cattle ticks (Boophilus microplus). The animals are transferred into dishes and kept in a climate-controlled room.
Efficacy is assessed after 7 days by laying of fertile eggs. Eggs which are not visibly fertile are stored in a climate-controlled cabinet until the larvae hatch after about 42 days. An efficacy of 100% means that none of the ticks has laid any fertile eggs; 0% means that all the eggs are fertile.

Tetranychus urticae = Tetranychus urticae spray test, OP-resistant; format: in vivo; settings: application rate 500 g/ha, after 6 days, bean leaf discs
Method: Tetranychus urticae—Spray Test, OP-Resistant
Solvent: 78.0 parts by weight of acetone • • 1.5 parts by weight of dimethylformamide
(§1) Emulsifier: alkylaryl polyglycol ether
(§2) To produce a suitable active ingredient formulation, 1 part by weight of active ingredient is dissolved with the specified parts by weight of solvent and made up with water containing an emulsifier concentration of 1000 ppm until the desired concentration is attained. To produce further test concentrations, the formulation is diluted with emulsifier-containing water.
Discs of bean leaves (Phaseolus vulgaris) infested with all stages of the greenhouse red spider mite (Tetranychus urticae) are sprayed with an active ingredient formulation of the desired concentration.
After 6 days, the efficacy in % is determined. 100% means that all the spider mites have been killed; 0% means that no spider mites have been killed.

Lucilia cuprina = Lucilia cuprina test; format: in vivo; settings: application rate 100 ppm, after 2 days, L1 larvae
How it was run: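 Active ingredient dissolved in DMSO and diluted with water to the test concentration. About 20 first-instar sheep blowfly larvae placed on minced horsemeat containing the formulation; percentage of larvae killed scored after 2 days.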

Ctenocephalides felis [3] = test: Ctenocephalides felis in vitro contact test with adult cat fleas; format: in vivo; settings: application rate 5 μg/cm^2 (500 g/ha), after 48 h
Method: Ctenocephalides felis—In Vitro Contact Tests with Adult Cat Fleas
For the coating of the test tubes, 9 mg of active ingredient are first dissolved in 1 ml of acetone p.a. and then diluted to the desired concentration with acetone p.a. 250 μl of the solution are distributed homogeneously on the inner walls and the base of a 25 ml glass tube by turning and rocking on an orbital shaker (rocking rotation at 30 rpm for 2 h). With 900 ppm of active ingredient solution and internal surface area 44.7 cm^2, given homogeneous distribution, an area-based dose of 5 μg/cm^2 is achieved.
After the solvent has evaporated off, the tubes are populated with 5-10 adult cat fleas (Ctenocephalides felis), sealed with a perforated plastic lid and incubated in a horizontal position at room temperature and ambient humidity. After 48 h, efficacy is determined. To this end, the tubes are stood upright and the fleas are knocked to the base of the tube. Fleas which remain motionless at the base or move in an uncoordinated manner are considered to be dead or moribund.
100% efficacy means that all the fleas were dead or moribund. 0% efficacy means that no fleas were harmed.

Musca domestica = Musca domestica test; format: in vivo; settings: after 2 days, adult houseflies
Method: Musca domestica Test Solvent: dimethyl sulphoxide To produce a suitable active ingredient formulation, 10 mg of active ingredient are mixed with 0.5 ml of dimethyl sulphoxide, and the concentrate is diluted with water to the desired concentration. Vessels containing a sponge treated with sugar solution and the active ingredient formulation of the desired concentration are populated with 10 adult houseflies (Musca domestica). After 2 days, the kill in % is determined. 100% means that all of the flies have been killed; 0% means that none of the flies have been killed.

Myzus persicae = Myzus persicae spray test; format: in vivo; settings: application rate 500 g/ha, after 6 days, Chinese cabbage leaf discs
Method: Myzus persicae—Spray Test
Solvent: 78 parts by weight of acetone • • 1.5 parts by weight of dimethylformamide
as §1, §2
Discs of Chinese cabbage leaves (Brassica pekinensis) infested by all stages of the green peach aphid (Myzus persicae) are sprayed with an active ingredient formulation of the desired concentration.
After 6 days, the efficacy in % is determined. 100% means that all the aphids have been killed; 0% means that no aphids have been killed.

[4] = acidic range pH 2.7, 0.1% aqueous formic acid and acetonitrile, reversed-phase column (C 18)
[5] = log P, neutral range, HPLC on reversed-phase column (C 18)
[6] = acidic range at pH 2.7, 0.1% aqueous formic acid and acetonitrile, HPLC on reversed-phase column (C 18)

| LOGP_HCOOH [1, 4] | LOGP_NEUTRAL ([1]; log P (neutral), HPLC reversed-phase column (C 18)) | LOGP_NEUTRAL [1, 5] | LOGP_HCOOH [1, 6] | SMILES | efficacy (caterpillars killed) (Spodoptera frugiperda; application rate 500 g/ha) | efficacy (beetle larvae killed) (Phaedon cochleariae; application rate 500 g/ha) | nematicidal efficacy (formation of galls) (Meloidogyne incognita) | efficacy (kill in %) (Ctenocephalides felis [2]) | efficacy (no laying of fertile eggs) (Boophilus microplus) | efficacy (spider mites killed) (Tetranychus urticae) | efficacy (kill in %) (Lucilia cuprina) | efficacy (caterpillars killed) (Spodoptera frugiperda; application rate 100 g/ha) | efficacy (fleas dead or moribund) (Ctenocephalides felis [3]) | efficacy (beetle larvae killed) (Phaedon cochleariae; application rate 100 g/ha) | efficacy (kill in %) (Musca domestica; application rate 100 ppm) | efficacy (aphids killed) (Myzus persicae) | efficacy (kill in %) (Musca domestica; application rate 20 ppm) |
| --- | --- | --- | --- | --- | --- | --- | --- | --- | --- | --- | --- | --- | --- | --- | --- | --- | --- |
| 3.55 | 3.58 |  |  | O=C(NCc1ccc(N2CCCC2=O)cc1)c1cc(-c2ccc(OC(F)(F)F)cc2)cc(NC(=O)C2CC2)n1 [Example I-259] | 100% | 83% | 90% |  |  |  |  |  |  |  |  |  |  |
| 3.99 |  | 3.87 |  | CC(C)C(=O)Nc1cc(-c2ccc(OC(F)(F)F)cc2)cc(C(=O)NCc2ccc(-c3cnco3)cc2)n1 [Example I-104] |  |  | 90% | 80% | 95% | 90% | 100% |  |  |  |  |  |  |
|  |  | 3.74 | 3.85 | O=C(NC1CC1(F)F)c1cc(-c2ccc(OC(F)(F)F)cc2)cc(NC(=O)C2CC2)n1 (stereo not shown) [Example I-216] | 100% | 100% |  | 100% |  |  | 80% | 100% | 100% | 100% |  |  |  |
|  |  | 3.50 | 3.09 | N#Cc1ccc(CNC(=O)c2cc(-c3ccc([S+]([O-])C(F)(F)F)cc3)cc(NC(=O)C3CC3)n2)cc1 (stereo not shown) [Example I-151] | 100% | 100% |  | 100% | 80% |  | 100% | 100% |  | 100% | 100% |  |  |
| 3.34 |  | 3.25 |  | C#CCNC(=O)c1cc(-c2ccc(C(F)(F)F)cc2)cc(NC(=O)C2CC2)n1 [Example I-038] | 83% | 83% | 90% |  |  |  |  |  |  | 100% |  |  |  |
|  |  |  | 3.42 | COC(=O)C1(NC(=O)c2cc(-c3ccc(OC(F)(F)F)cc3)cc(NC(=O)C3CC3)n2)CC1 [Example I-138] | 100% | 100% | 90% | 100% |  |  | 100% | 100% | 100% | 100% | 100% |  |  |
|  |  | 3.93 | 3.88 | O=C(NC1CSC1)c1cc(-c2ccc(OC(F)(F)F)cc2)cc(NC(=O)C2CC2)n1 [Example I-162] | 100% | 100% | 90% | 100% |  |  |  | 100% | 100% | 100% |  |  |  |
| 3.37 |  | 3.37 |  | O=C(NC1CC1)c1cc(-c2ccc(C(F)(F)F)cc2)cc(NC(=O)C2CC2)n1 [Example I-013] | 100% | 100% |  | 100% |  |  | 100% | 100% | 80% | 100% | 100% |  |  |
|  |  | 3.17 | 3.25 | COC(=O)C1(NC(=O)c2cc(-c3ccc(OC(F)(F)F)cc3)cc(NC(=O)C3CC3)n2)COC1 [Example I-175] |  |  |  |  |  |  |  |  |  |  |  | 90% |  |
|  |  | 3.33 | 3.41 | CCNC(=O)c1cc(-c2ccc(OC(F)(F)F)cc2)cc(NC(=O)C2CC2)n1 [Example I-118] | 100% | 100% |  | 100% |  |  |  | 100% | 100% | 100% |  |  |  |
| 3.05 |  | 3.01 |  | N#CCNC(=O)c1cc(-c2ccc(C(F)(F)F)cc2)cc(NC(=O)C2CC2)n1 [Example I-025] | 100% | 100% | 100% | 98% |  |  |  | 100% |  |  |  |  |  |
|  |  | 3.66 | 3.76 | N#CC1CCC(NC(=O)c2cc(-c3ccc(OC(F)(F)F)cc3)cc(NC(=O)C3CC3)n2)CC1 (stereo not shown) [Example I-197] | 100% | 100% |  | 100% |  |  | 100% | 100% | 100% | 83% | 80% |  | 100% |
|  |  |  | 3.84 | CC1(NC(=O)c2cc(-c3ccc(OC(F)(F)F)cc3)cc(NC(=O)C3CC3)n2)CC1 [Example I-128] | 100% | 100% |  | 100% |  |  | 100% | 100% | 100% | 100% |  |  |  |
